For orientation: IC50 means the midpoint of a concentration-inhibition curve. The low end stands for greater potency, the high end for weaker potency.

The source of these data is patent publication US20240109930A1, “TRIAZOLYL-METHYL SUBSTITUTED ALPHA-D-GALACTOPYRANOSIDE DERIVATIVES” (Idorsia Pharmaceuticals Ltd, priority 2021, published 2024).

Test [1] concerns the target human Gal-3 (hGal-3) (Homo sapiens (Human), UniProt P17931). Briefly: Competitive binding assay: biotinylated hGal-3 binding to microplate-adsorbed asialofetuin (ASF). The note with it: IC50 values from several measurements given as geomean. In a few lines:
(§1)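 Biotinylated hGal-3 or hGal-1 (preferably cysteine-free Cys→Ser mutant), 300–1000 ng/mL, competes with compound for ASF-coated wells for 3 h at 4 °C. Bound lectin detected with streptavidin-peroxidase (80 ng/mL, 1 h, 4 °C) and ABTS by absorbance; IC50 reported as geomean of several runs.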

The target of test [2] is human Gal-1 (hGal-1) (Homo sapiens, UniProt P09382, C131S/C17S/C43S/C61S/C89S). Briefly: Competitive binding assay: biotinylated hGal-1 binding to microplate-adsorbed asialofetuin (ASF). The note with it: IC50 values from several measurements given as geomean. In a few lines:
as §1

Chain of human Gal-3 (hGal-3) (P17931 whole entry): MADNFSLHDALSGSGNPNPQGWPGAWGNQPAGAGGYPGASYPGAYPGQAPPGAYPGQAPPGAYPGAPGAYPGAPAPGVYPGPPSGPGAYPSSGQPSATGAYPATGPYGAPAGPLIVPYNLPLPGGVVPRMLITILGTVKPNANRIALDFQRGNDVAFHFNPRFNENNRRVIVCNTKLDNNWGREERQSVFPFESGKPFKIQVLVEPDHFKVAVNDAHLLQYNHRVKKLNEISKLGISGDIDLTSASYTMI

Regarding `CO[C@@H]1[C@@H](n2cc(-c3ccc(F)c(F)c3F)nn2)[C@@H](O)[C@@H](CO)O[C@@H]1Cn1cc(C2(C)CCC2)nn1` [Ex 3.2.13.], the figures for the IC50 in test [1] and in test [2] were 80 nM and 670 nM, respectively.
Turning to `CO[C@@H]1[C@@H](n2cc(-c3ccc(F)c(F)c3F)nn2)[C@@H](O)[C@@H](CO)O[C@@H]1Cn1cc(C2(C)CC2)nn1` [Ex 3.2.23.], the concentration for half-maximal inhibition (IC50) in test [1] came out at 80 nM; in test [2], 300 nM.
On the same counts, the results for `CO[C@@H]1[C@@H](n2cc(-c3ccc(F)c(F)c3F)nn2)[C@@H](O)[C@@H](CO)O[C@@H]1Cn1cc(C2CCCC2)nn1` [Ex 3.2.32.] are 60 nM and 1150 nM.
The like results for `CO[C@@H]1[C@@H](n2cc(-c3ccc(F)c(F)c3F)nn2)[C@@H](O)[C@@H](CO)O[C@@H]1Cn1cc(C2(O)CCCC2)nn1` [Ex 3.2.33.] were, in that order, 90 nM and 1250 nM.
The like results for `CO[C@@H]1[C@@H](n2cc(-c3ccc(F)c(F)c3F)nn2)[C@@H](O)[C@@H](CO)O[C@@H]1Cn1cc(C(C)(C)O)nn1` [Ex 3.2.34.] were, in that order, 440 nM and 720 nM.
In the case of `CO[C@@H]1[C@@H](n2cc(-c3ccc(F)c(F)c3F)nn2)[C@@H](O)[C@@H](CO)O[C@@H]1Cn1cc(C2(O)CCOCC2)nn1` [Ex 3.2.35.], the IC50 in test [1] was 60 nM; in test [2] it was 860 nM.
`CO[C@@H]1[C@@H](n2cc(-c3ccc(F)c(F)c3F)nn2)[C@@H](O)[C@@H](CO)O[C@@H]1Cn1cc(C2(O)CC2)nn1` [Ex 3.2.36.]: the 50% inhibitory concentration (IC50) in test [1] came to 130 nM; in test [2], 2140 nM.
As for `CO[C@@H]1[C@@H](n2cc(-c3ccc(F)c(F)c3F)nn2)[C@@H](O)[C@@H](CO)O[C@@H]1Cn1cc(C23CCC(NC(=O)OC(C)(C)C)(CC2)CC3)nn1` [Ex 3.2.37.], the IC50 in test [1] stood at 40 nM; in test [2], 1720 nM.
Turning to `CCC1(c2cn(C[C@H]3O[C@H](CO)[C@H](O)[C@H](n4cc(-c5ccc(F)c(F)c5F)nn4)[C@H]3OC)nn2)COC1` [Ex 3.2.38.], the IC50 in test [1] was determined as 50 nM; in test [2], 470 nM.
On the same counts, the results for `CO[C@@H]1[C@@H](n2cc(-c3ccc(F)c(F)c3F)nn2)[C@@H](O)[C@@H](CO)O[C@@H]1Cc1cn(C23CCC(N)(CC2)CC3)nn1` [Ex 3.2.39.] are 50 nM and 810 nM.
Turning to `CO[C@@H]1[C@@H](n2cc(-c3ccc(Br)c(F)c3F)nn2)[C@@H](O)[C@@H](CO)O[C@@H]1Cc1cn([C@H]2CCC[C@@H]2O)nn1` [Ex 4.1.3.], the IC50 in test [1] is 40 nM; in test [2], 4700 nM.
On the same counts, the results for `CO[C@@H]1[C@@H](n2cc(-c3ccc(Br)c(F)c3F)nn2)[C@@H](O)[C@@H](CO)O[C@@H]1Cc1cn(C2(CO)CC2)nn1` [Ex 4.1.4.] are 40 nM and 2930 nM.
The like results for `CO[C@@H]1[C@@H](n2cc(-c3ccc(Br)c(F)c3F)nn2)[C@@H](O)[C@@H](CO)O[C@@H]1Cc1cn(C2(C)COC2)nn1` [Ex 4.1.6.] were, in that order, 40 nM and 1460 nM.
On the same counts, the results for `CO[C@@H]1[C@@H](n2cc(-c3ccc(Br)c(F)c3F)nn2)[C@@H](O)[C@@H](CO)O[C@@H]1Cc1cn(C23CC(C2)C3)nn1` [Ex 4.1.12.] are 40 nM and 3920 nM.
Regarding `CO[C@@H]1[C@@H](n2cc(-c3ccc(Br)c(F)c3F)nn2)[C@@H](O)[C@@H](CO)O[C@@H]1Cc1cn(C2(C)CCC2)nn1` [Ex 4.1.13.], the concentration for half-maximal inhibition (IC50) was determined as 20 nM in test [1] and 2200 nM in test [2].
Consider `CO[C@@H]1[C@@H](n2cc(-c3ccc(Br)c(F)c3F)nn2)[C@@H](O)[C@@H](CO)O[C@@H]1Cc1cn(C23CC(C)(C2)C3)nn1` [Ex 4.1.14., (2R,3R,4S,5R,6R)-4-(4-(4-bromo-2,3-difluorophenyl)-1H-1,2,3-triazol-1-yl)-2-(hydroxymethyl)-5-methoxy-6-((1-(3-methylbicyclo[1.1.1]pentan-1-yl)-1H-1,2,3-triazol-4-yl)methyl)tetrahydro-2H-pyran-3-ol], for which the values for the IC50 in test [1] and in test [2] were 60 nM and 1360 nM, respectively.
